In patent US20090247475A1, “METHODS AND COMPOSITIONS RELATING TO PHARMACOGENETICS OF DIFFERENT GENE VARIANTS IN THE CONTEXT OF IRINOTECAN-BASED THERAPIES” (The Regents of the University of California, priority 2004, published 2009):
Numbering of substitutions follows the chain as printed. Where two headings read alike, the source gives them in different places.

How the values were obtained:
[1] = molecular target: T1, SLCO1B1*15 (N130D and V174A) (Homo sapiens, UniProt Q9Y6L6, N130D/V174A); settings: among the variants examined; cited from earlier work
T1 sequence (Q9Y6L6 1-691 N130D/V174A): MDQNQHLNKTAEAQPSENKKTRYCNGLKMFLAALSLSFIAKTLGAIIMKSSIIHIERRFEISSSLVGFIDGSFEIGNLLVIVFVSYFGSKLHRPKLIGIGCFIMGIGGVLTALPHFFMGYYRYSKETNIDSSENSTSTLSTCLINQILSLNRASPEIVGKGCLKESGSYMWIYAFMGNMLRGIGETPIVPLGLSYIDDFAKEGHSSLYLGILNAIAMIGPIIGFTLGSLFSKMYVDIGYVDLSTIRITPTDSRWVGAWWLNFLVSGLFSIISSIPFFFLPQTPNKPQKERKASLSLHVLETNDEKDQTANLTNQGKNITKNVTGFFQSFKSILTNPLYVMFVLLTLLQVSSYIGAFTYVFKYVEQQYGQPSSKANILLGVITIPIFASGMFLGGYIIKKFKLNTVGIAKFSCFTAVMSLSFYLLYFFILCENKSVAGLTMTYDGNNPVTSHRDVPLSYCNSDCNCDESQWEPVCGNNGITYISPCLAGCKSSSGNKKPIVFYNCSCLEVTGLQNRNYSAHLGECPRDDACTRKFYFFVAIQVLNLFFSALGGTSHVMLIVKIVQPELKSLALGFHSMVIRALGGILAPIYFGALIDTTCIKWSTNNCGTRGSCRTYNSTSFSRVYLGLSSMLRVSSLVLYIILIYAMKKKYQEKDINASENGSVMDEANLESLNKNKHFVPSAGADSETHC

OATP1B1 = molecular target: T2, OATP1B1 (Homo sapiens, UniProt Q9Y6L6); settings: cited from earlier work
T2 sequence (Q9Y6L6 1-691): T1 sequence (Q9Y6L6 1-691 N130D/V174A) with D130N, A174V

[2] = Irinotecan pharmacokinetics (AUC, noncompartmental analysis) in cancer patients stratified by genotype
Source text: (§1) Sixty-four adults (48 Caucasians, 10 African-Americans, 4 Hispanics, and 2 others) with refractory solid tumors took part in the pharmacogenetic study.
(§2) After visual inspection of the graphical plots of AUC and ratios stratified by genotype, t test analysis was applied to the data showing the possible presence of an inter-genotype difference in irinotecan pharmacokinetics.
(§3) Two SNPs in SLCO1B1 [*1b (388A>G) and *5 (521T>C)] were also genotyped.

[3] = human, in vivo
Source text: as §1, §2, §3

[4] = early single agent trials; fraction of patients; cited from earlier work
[5] = cited from earlier work
[6] = OATP1B1*1a and three common variants

CCc1c2c(nc3ccc(O)cc13)-c1cc3c(c(=O)n1C2)COC(=O)[C@]3(O)CC [SN-38, 7-ethyl-10-hydroxycamptothecin]
Transport activity of SLCO1B1*15 variant [1]: decreased transport activities | Transport by OATP1B1 (OATP1B1; [6]): transport activity for SN-38 was observed | Inhibition of SLCO1B1-mediated uptake of [(3)H]estrone-3-sulfate (OATP1B1): significant inhibitory effect | AUC in ABCC2 3972 TT patients compared to CT and CC patients ([2]; 350 mg/m^2 IV irinotecan, SN-38 and SN-38G analysed in 6/6 and 6/7 UGT1A1 genotype patients): No significant correlation

CCc1c2c(nc3ccc(O[C@@H]4O[C@H](C(=O)O)[C@@H](O)[C@H](O)[C@H]4O)cc13)-c1cc3c(c(=O)n1C2)COC(=O)[C@]3(O)CC [SN-38G, 10O-glucuronyl-SN-38]
Effect of SLCO1B1*5 variant on patient exposure (AUC) [3]: not affected | Transport by OATP1B1 (OATP1B1): not transported

C[C@]12CC[C@@H]3c4ccc(OS(=O)(=O)O)cc4CC[C@H]3[C@@H]1CCC2=O [estrone-3-sulfate]
Transport activity of SLCO1B1*15 variant [1]: decreased transport activities

CCc1c2c(nc3ccc(OC(=O)N4CCC(N5CCCCC5)CC4)cc13)-c1cc3c(c(=O)n1C2)COC(=O)[C@]3(O)CC [irinotecan, Irinotecan]
Frequency of grade 3-4 diarrhea [4]: about one third | Effect of SLCO1B1*5 variant on patient exposure (AUC) [3]: increase in irinotecan AUC | Transport by OATP1B1 (OATP1B1; [6]): not transported | Effect of SLCO1B1*1b allele on plasma disposition ([2]; human, in vivo): no effect

CC[C@H](C)C(=O)O[C@H]1C[C@H](O)C=C2C=C[C@H](C)[C@H](CC[C@@H](O)C[C@@H](O)CC(=O)O)[C@H]21 [pravastatin]
Mean pravastatin AUC0-12 higher compared to non-carriers ([5]; heterozygous carriers of *15B): 93% | Mean pravastatin AUC0-12 higher compared to non-carriers ([5]; heterozygous carriers of *17): 130% | Mean pravastatin AUC0-12 higher compared to reference genotype ([5]; subjects with SLCO1B1 -11187GA genotype): 98% | Transport activity of SLCO1B1*15 variant [1]: decreased transport activities
